Assay results published in article PMC9090415, “Discovery of small molecule inhibitors of Plasmodium falciparum apicoplast DNA polymerase” (Journal of Enzyme Inhibition and Medicinal Chemistry, 2022).

Target: P. falciparum apicoplast DNA polymerase (Pf-apPOL) (Plasmodium falciparum, UniProt Q8ILY1)
Assay: Fluorescence-based high-throughput DNA polymerase assay (molecular beacon), primary screen and dose-response
Type: biochemical
Protocol: The HT assay employs a molecular beacon, a stem-loop DNA template with a Cy3 dye and the Black Hole Quencher on the 3′ and 5′ ends of the DNA, respectively. Pf-apPOL concentration is based on a calculated absorptivity of ε280 = 56750 M^−1 cm^−1. Reactions were carried out at 25 °C, using Corning 3575 […] (well-volume, 20 µL). Assays testing for compound inhibition composed of reaction buffer (pH 7.9 in 50 mM potassium acetate, 20 mM Tris-acetate and 10 mM magnesium acetate), Pf-apPOL (20 nM), DNA substrate (20 nM), dNTPs (6 µM), and compound (10 µM in DMSO). The DNA and nucleotide substrates (dNTPs) were at concentrations of 20 nM and 6 µM, respectively, in the assay. Pf-apPOL was incubated in the reaction buffer with dNTPs and the compound of interest (10 µM, in the assay) at 25 °C for 10 min. The DNA substrate was then added and the reaction was allowed to proceed for 90 min at 25 °C.
Each assay plate contained 16 negative controls (no Pf-apPOL, DMSO present) and 16 positive controls (Pf-apPOL present, no DMSO). The fluorescence of each well was determined using a BioTek Synergy Neo fluorescence plate reader using excitation and emission wavelengths of 555 and 570 nm, respectively.
In the above, Min is the average of fluorescence emission of the negative controls (substrate only), Max the average fluorescence emission from the positive controls (enzyme + substrate), and Test the emission from the assays in the presence of compounds (enzyme + compound + substrates). […] […] The IC50 of each compound was determined using Equation (2): (2) IC50= Vmax/(1+ (I/IC50)^n)
In the above, n measures cooperativity, with n > 1 indicating synergistic binding of more than a single molecule of the compound.
To identify apPOL inhibitors we utilised our previously developed high-throughput DNA polymerase assay. The HT assay is based on a molecular beacon DNA template that forms a stem-loop with a Cy3 dye and the Black Hole Quencher on the 3′ and 5′ ends of the DNA, respectively. DNA polymerase activity extends an annealed primer through the stem region, displacing the fluorophore from the quencher, thereby increasing its fluorescence (Figure 1(A)). The assay accurately recapitulates the kinetic behaviour of apPOL, as measured through more conventional low-throughput gel-based assays. The Z′ factor for the assay described here was 0.9 across all plates (data not shown).
Figure 1. High-throughput screening. (A) The fluorescent-based DNA polymerase assay used to screen the compound libraries. The DNA template strand is a hairpin loop with a primer annealed to the loop. The 3’ end of the primer is 11 bases away from the 6 bp duplex. Strand displacement activity of the DNA polymerase separates the Cy3 dye from the Black hole quencher leading to an increase in fluorescent signal. (B) The high-throughput assay workflow. The DNA polymerase is incubated with […] compound for 10 min prior to addition of the hairpin substrate. The reaction is quenched at 3 different time points and the fluorescent signal is measured and % inhibition is determined using the provided equation.

Sequence of P. falciparum apicoplast DNA polymerase (Pf-apPOL) (Q8ILY1 entry or part of it): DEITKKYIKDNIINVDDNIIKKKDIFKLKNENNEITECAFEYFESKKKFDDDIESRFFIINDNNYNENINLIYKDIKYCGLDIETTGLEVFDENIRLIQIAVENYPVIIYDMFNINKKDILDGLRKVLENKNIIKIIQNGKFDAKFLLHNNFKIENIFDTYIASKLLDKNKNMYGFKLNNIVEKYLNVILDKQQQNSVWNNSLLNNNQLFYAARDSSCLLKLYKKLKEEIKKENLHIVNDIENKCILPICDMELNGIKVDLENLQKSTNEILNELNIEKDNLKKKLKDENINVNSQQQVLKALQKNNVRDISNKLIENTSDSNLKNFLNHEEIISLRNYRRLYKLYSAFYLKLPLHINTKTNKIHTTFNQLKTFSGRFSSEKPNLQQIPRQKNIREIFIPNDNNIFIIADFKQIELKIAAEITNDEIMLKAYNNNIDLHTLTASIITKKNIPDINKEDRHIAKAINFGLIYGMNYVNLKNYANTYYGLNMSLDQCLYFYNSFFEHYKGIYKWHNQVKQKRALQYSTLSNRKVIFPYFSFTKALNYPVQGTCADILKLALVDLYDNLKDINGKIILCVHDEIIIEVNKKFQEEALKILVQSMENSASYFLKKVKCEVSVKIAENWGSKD

Cc1ncc(CSc2nc(C(C)(C)C)cs2)c(CO)c1O [KU0264007]
DNA Pol (186 hits, value of the hit list (primary screen); unit not given; 90 min, 10 µM): 70 | % inhibition Apo pol 10' (DRC-1; 10'; concentration 2.5): 0.8986% | % inhibition Apo pol 10' (DRC-1; 10'; concentration 5): 5.699% | % inhibition Apo pol 10' (DRC-1; 10'; concentration 10): 22.1813% | % inhibition Apo pol 10' (DRC-1; 10'; concentration 20): 37.8368% | % inhibition Apo pol 10' (DRC-1; 10'; concentration 40): 57.9296% | % inhibition Apo pol 10' (DRC-1; 10'; concentration 80): 69.8809% | % inhibition Apol 90' (DRC-1; 90'; concentration 2.5): -0.5136% | % inhibition Apol 90' (DRC-1; 90'; concentration 5): -0.3111% | % inhibition Apol 90' (DRC-1; 90'; concentration 10): 8.991% | % inhibition Apol 90' (DRC-1; 90'; concentration 20): 19.9803% | % inhibition Apol 90' (DRC-1; 90'; concentration 40): 38.5024% | % inhibition Apol 90' (DRC-1; 90'; concentration 80): 54.4417% | % inhibition apPOL 180' (DRC-1; 180'; concentration 2.5): -1.351% | % inhibition apPOL 180' (DRC-1; 180'; concentration 5): -5.176% | % inhibition apPOL 180' (DRC-1; 180'; concentration 10): 0.78% | % inhibition apPOL 180' (DRC-1; 180'; concentration 20): 8.562% | % inhibition apPOL 180' (DRC-1; 180'; concentration 40): 22.9628% | % inhibition apPOL 180' (DRC-1; 180'; concentration 80): 39.37% | % inhibition Apo pol 5' (DRC-2, 5', concentration 2.5): 6.56% | % inhibition Apo pol 5' (DRC-2, 5', concentration 5): 10% | % inhibition Apo pol 5' (DRC-2, 5', concentration 10): 24% | % inhibition Apo pol 5' (DRC-2, 5', concentration 20): 37% | % inhibition Apo pol 5' (DRC-2, 5', concentration 40): 45% | % inhibition Apo pol 5' (DRC-2, 5', concentration 80): 50% | % inhibition Apol 40' (DRC-2, 40', concentration 2.5): 4% | % inhibition Apol 40' (DRC-2, 40', concentration 5): 6.47% | % inhibition Apol 40' (DRC-2, 40', concentration 10): 20% | % inhibition Apol 40' (DRC-2, 40', concentration 20): 35% | % inhibition Apol 40' (DRC-2, 40', concentration 40): 47% | % inhibition Apol 40' (DRC-2, 40', concentration 80): 61% | % inhibition ApPOL 90' (DRC-2, 90', concentration 2.5): 1.8% | % inhibition ApPOL 90' (DRC-2, 90', concentration 5): 2.55% | % inhibition ApPOL 90' (DRC-2, 90', concentration 10): 14% | % inhibition ApPOL 90' (DRC-2, 90', concentration 20): 28% | % inhibition ApPOL 90' (DRC-2, 90', concentration 40): 43% | % inhibition ApPOL 90' (DRC-2, 90', concentration 80): 62% | % inhibition apPOL 180' (DRC-2, 180', concentration 2.5): -3% | % inhibition apPOL 180' (DRC-2, 180', concentration 5): -4.6% | % inhibition apPOL 180' (DRC-2, 180', concentration 10): 2.58% | % inhibition apPOL 180' (DRC-2, 180', concentration 20): 14% | % inhibition apPOL 180' (DRC-2, 180', concentration 40): 30% | % inhibition apPOL 180' (DRC-2, 180', concentration 80): 58% | % inhibition ApPOL 90' (DRC-2; 90'; concentration 10): 14% | % inhibition apPOL 180' (DRC-2; 180'; concentration 20): 14% | DNA Pol (primary screen value, 'DNA Pol' only; 90 min, 10 µM): 70

Cc1ccnc(NS(=O)(=O)c2ccc(-n3cccc3)cc2)n1 [KU0034899]
% inhibition Apo pol 10' (DRC-1; concentration 2.5; 10'): 6.567% | % inhibition Apol 90' (DRC-1; concentration 2.5; 90'): 1.285% | % inhibition apPOL 180' (DRC-1; concentration 2.5; 180'): -4.513% | % inhibition Apo pol 10' (DRC-1; concentration 5; 10'): 25.8281% | % inhibition Apol 90' (DRC-1; concentration 5; 90'): 11.3898% | % inhibition apPOL 180' (DRC-1; concentration 5; 180'): 1.685% | % inhibition Apo pol 10' (DRC-1; concentration 10; 10'): 43.5691% | % inhibition Apol 90' (DRC-1; concentration 10; 90'): 23.2373% | % inhibition apPOL 180' (DRC-1; concentration 10; 180'): 9.9045% | % inhibition Apo pol 10' (DRC-1; concentration 20; 10'): 72.9985% | % inhibition Apol 90' (DRC-1; concentration 20; 90'): 50.5873% | % inhibition apPOL 180' (DRC-1; concentration 20; 180'): 29.9217% | % inhibition Apo pol 10' (DRC-1; concentration 40; 10'): 90.805% | % inhibition Apol 90' (DRC-1; concentration 40; 90'): 80.4805% | % inhibition apPOL 180' (DRC-1; concentration 40; 180'): 67.6388% | % inhibition Apo pol 10' (DRC-1; concentration 80 (unit not given); 10'): 93.2113% | % inhibition Apol 90' (DRC-1; concentration 80; 90'): 92.1996% | % inhibition apPOL 180' (DRC-1; concentration 80; 180'): 89.3134% | % inhibition Apol 40' (DRC-2; 40'; concentration 80): 59% | % inhibition ApPOL 90' (DRC-2; 90'; concentration 20): 59% | % inhibition Apo pol 5' (DRC-2; concentration 2.5; 5'): 26% | % inhibition Apol 40' (DRC-2; concentration 2.5; 40'): 31% | % inhibition ApPOL 90' (DRC-2; concentration 2.5; 90'): 29% | % inhibition apPOL 180' (DRC-2; concentration 2.5; 180'): 19% | % inhibition Apo pol 5' (DRC-2; concentration 5; 5'): 23% | % inhibition Apol 40' (DRC-2; concentration 5; 40'): 20% | % inhibition ApPOL 90' (DRC-2; concentration 5; 90'): 14% | % inhibition apPOL 180' (DRC-2; concentration 5; 180'): 0.78% | % inhibition Apo pol 5' (DRC-2; concentration 10; 5'): 41% | % inhibition Apol 40' (DRC-2; concentration 10; 40'): 42% | % inhibition ApPOL 90' (DRC-2; concentration 10; 90'): 37% | % inhibition apPOL 180' (DRC-2; concentration 10; 180'): 21% | % inhibition Apo pol 5' (DRC-2; concentration 20; 5'): 49% | % inhibition Apol 40' (DRC-2; concentration 20; 40'): 62% | % inhibition ApPOL 90' (DRC-2; concentration 20; 90'): 59% | % inhibition apPOL 180' (DRC-2; concentration 20; 180'): 48% | % inhibition Apo pol 5' (DRC-2; concentration 40; 5'): 52% | % inhibition Apol 40' (DRC-2; concentration 40; 40'): 73% | % inhibition ApPOL 90' (DRC-2; concentration 40; 90'): 75% | % inhibition apPOL 180' (DRC-2; concentration 40; 180'): 74% | % inhibition Apo pol 5' (DRC-2; concentration 80; 5'): 17% | % inhibition Apol 40' (DRC-2; concentration 80; 40'): 59% | % inhibition ApPOL 90' (DRC-2; concentration 80; 90'): 67% | % inhibition apPOL 180' (DRC-2; concentration 80; 180'): 76% | DNA Pol (primary screen value of the 186 hits; unit not given; 90 min, 10 µM): 40 | DNA Pol (primary screen value; head prints only 'DNA Pol'; 90 min, 10 µM): 40

COCC(=O)Nc1c(-c2cccc(F)c2)nc2cc(C)ccn12 [Molecule 44]
IC50 (supplemental file 2, sheet IC50 nontoxic compounds; Pf-apPOL): 11.1 µM
